Results taken from paper PMC6131557, “Selective Cytotoxicity of Dihydroorotate Dehydrogenase Inhibitors to Human Cancer Cells Under Hypoxia and Nutrient-Deprived Conditions” (Frontiers in Pharmacology, 2018).
Where two headings read alike, the source gives them in different places.

Legend:
OVCAR-8 = test: 39-cancer cell panel assay: OVCAR-8; format: cell-based; settings: Homo sapiens, Ov
DMS114 = test: 39-cancer cell panel assay: DMS114; format: cell-based; settings: Homo sapiens, DMS-114, Lu
NCI-H522 = test: 39-cancer cell panel assay: NCI-H522; format: cell-based; settings: Homo sapiens, Lu
OVCAR-3 = test: 39-cancer cell panel assay: OVCAR-3; format: cell-based; settings: Homo sapiens, Ov
U251 = test: 39-cancer cell panel assay: U251; format: cell-based; settings: Homo sapiens, U-251, CNS
MKN28 = test: 39-cancer cell panel assay: MKN28; format: cell-based; settings: Homo sapiens, MKN-28, St
RXF-631L = test: 39-cancer cell panel assay: RXF-631L; format: cell-based; settings: Homo sapiens, Re
HCT-15 = test: 39-cancer cell panel assay: HCT-15; format: cell-based; settings: Homo sapiens, Co
NCI-H23 = test: 39-cancer cell panel assay: NCI-H23; format: cell-based; settings: Homo sapiens, Lu
MCF-7 = test: 39-cancer cell panel assay: MCF-7; format: cell-based; settings: Homo sapiens, MCF7, Br
HBC-5 = test: 39-cancer cell panel assay: HBC-5; format: cell-based; settings: Homo sapiens, HBC5, Br
SF-295 = test: 39-cancer cell panel assay: SF-295; format: cell-based; settings: Homo sapiens, CNS
ACHN = test: 39-cancer cell panel assay: ACHN; format: cell-based; settings: Homo sapiens, Re
KM-12 = test: 39-cancer cell panel assay: KM-12; format: cell-based, human; settings: Co
NCI-H226 = test: 39-cancer cell panel assay: NCI-H226; format: cell-based; settings: Homo sapiens, Lu
SK-OV-3 = test: 39-cancer cell panel assay: SK-OV-3; format: cell-based; settings: Homo sapiens
OVCAR-4 = test: 39-cancer cell panel assay: OVCAR-4; format: cell-based; settings: Homo sapiens, Ov
HCT-116 = test: 39-cancer cell panel assay: HCT-116; format: cell-based; settings: Homo sapiens, Co
SF-539 = test: 39-cancer cell panel assay: SF-539; format: cell-based; settings: Homo sapiens, CNS
PC-3 = test: 39-cancer cell panel assay: PC-3; format: cell-based; settings: Homo sapiens, Pro
MKN7 = test: 39-cancer cell panel assay: MKN7; format: cell-based; settings: Homo sapiens, MKN-7, St
BSY-1 = test: 39-cancer cell panel assay: BSY-1; format: cell-based; settings: Homo sapiens, Br
LOX-IMVI = test: 39-cancer cell panel assay: LOX-IMVI; format: cell-based; settings: Homo sapiens, Me
HT-29 = test: 39-cancer cell panel assay: HT-29; format: cell-based; settings: Homo sapiens, Co
SF-268 = test: 39-cancer cell panel assay: SF-268; format: cell-based; settings: Homo sapiens, CNS
DMS273 = test: 39-cancer cell panel assay: DMS273; format: cell-based; settings: Homo sapiens, DMS-273, Lu
SNB-78 = test: 39-cancer cell panel assay: SNB-78; format: cell-based; settings: Homo sapiens, CNS
A549 = test: 39-cancer cell panel assay: A549; format: cell-based; settings: Homo sapiens, Lu
MKN74 = test: 39-cancer cell panel assay: MKN74; format: cell-based; settings: Homo sapiens, MKN-74, St
NCI-H460 = test: 39-cancer cell panel assay: NCI-H460; format: cell-based; settings: Homo sapiens, Lu
St-4 = test: 39-cancer cell panel assay: St-4; format: cell-based; settings: Homo sapiens
MKN45 = test: 39-cancer cell panel assay: MKN45; format: cell-based; settings: Homo sapiens, MKN-45, St
[1] = biological target: T1, human dihydroorotate dehydrogenase (HsDHODH) (Homo sapiens, UniProt Q02127); test: Inhibition of recombinant human DHODH enzyme activity; format: biochemical; settings: for IC50: recombinant human DHODH; for inhibition at 1 µM: at 1,000 nM, read-out: Inhibition of HsDHODH activity (value in parentheses)
T1 construct: made in house

HBC-4 = test: 39-cancer cell panel assay: HBC-4; format: cell-based; settings: Homo sapiens, HBC4, Br
MDA-MB-231 = test: 39-cancer cell panel assay: MDA-MB-231; format: cell-based; settings: Homo sapiens, Br
HCC2998 = test: 39-cancer cell panel assay: HCC2998; format: cell-based; settings: Homo sapiens, HCC 2998, Co
OVCAR-5 = test: 39-cancer cell panel assay: OVCAR-5; format: cell-based; settings: Homo sapiens, Ov
MKN1 = test: 39-cancer cell panel assay: MKN1; format: cell-based; settings: Homo sapiens, MKN-1, St
DU-145 = test: 39-cancer cell panel assay: DU-145; format: cell-based; settings: Homo sapiens, Pro
SNB-75 = test: 39-cancer cell panel assay: SNB-75; format: cell-based; settings: Homo sapiens, CNS
Complex II–III = test: Succinate-cytochrome c reductase (complexes II–III) activity, bovine mitochondria; format: biochemical
Method: (§1) Recombinant human DHODH was purified, crystallized, and assayed as previously described ([Inaoka et al., 2016]) without modification. Bovine mitochondrial fractions were prepared as previously described ([Kita et al., 1988]) and NADH dehydrogenase (complex I), succinate:quinone reductase (complex II), quinol oxidase (complexes III–IV), NADH-cytochrome c reductase (complexes I–III), and succinate-cytochrome c (complexes II–III) activities were assayed following an established method ([Takamiya et al., 1986]; [Miyadera et al., 2001]; [Matsumoto et al., 2008]; [Kido et al., 2010]; [Nihashi et al., 2017]).

Complexes I–III = test: NADH-cytochrome c reductase (complexes I–III) activity, bovine mitochondria; format: biochemical
Method: as §1

Complex II = biological target: T2, Complex II (Bos taurus, UniProt P35720+Q3T189+Q95123); test: Succinate:quinone reductase (complex II) activity, bovine mitochondria; format: biochemical
T2 construct: from tissue; host or cells: bovine mitochondrial fraction / sub-mitochondrial particles

Complex III = biological target: T3, Complex III (Bos taurus, UniProt P00157); test: Quinol oxidase (complex III) activity, bovine mitochondria; format: biochemical; settings: ubiquinol oxidase activity
T3 construct: from tissue; host or cells: bovine mitochondrial fraction / sub-mitochondrial particles

Complex I = test: NADH dehydrogenase (complex I) activity, bovine mitochondria; format: biochemical; settings: at 5 μM
Method: as §1

DLD-1 cells = test: Cytotoxicity assay (Cell Counting Kit-8 / WST-8) on DLD-1 cells; format: cell-based, human; settings: at higher concentrations (100 μM); Supplementary Figure S7
Method: For hypoxia and nutrient-deprived culture conditions, cells were incubated under 1% oxygen in glucose and glutamine-free DMEM (Gibco) without FBS.
DLD-1 or HDF cells were seeded at 2.5 × 10^4 cells/well on a 96-well plate with normal medium, and cultured overnight under normal culture condition. The cells were washed with PBS and the medium was replaced to either normal medium or glucose and glutamine-free DMEM without FBS. Test compounds or DMSO as a control were added to the wells. The cells in normal medium were cultured under normal culture conditions, while cells in nutrient-deprived medium were cultured under hypoxia condition. After 24 or 48 h incubation, the cells were washed with PBS, 100 μl of fresh normal medium, and 10 μl of Cell Counting Kit-8 solution (Donjindo, Japan) was added to each well. After 3 h incubation under normal culture condition, the absorbance was measured at 450 nm using SpectraMax M2e-TUY microplate reader (Molecular Devices). Cell viability of test wells was calculated based on absorbance of control wells containing DMSO according to manufacturer’s protocol.

[2] = purified enzyme fixed at 10 nM, read-out: IC50 (nM), inhibition of human DHODH

T1 sequence (Q02127 whole entry): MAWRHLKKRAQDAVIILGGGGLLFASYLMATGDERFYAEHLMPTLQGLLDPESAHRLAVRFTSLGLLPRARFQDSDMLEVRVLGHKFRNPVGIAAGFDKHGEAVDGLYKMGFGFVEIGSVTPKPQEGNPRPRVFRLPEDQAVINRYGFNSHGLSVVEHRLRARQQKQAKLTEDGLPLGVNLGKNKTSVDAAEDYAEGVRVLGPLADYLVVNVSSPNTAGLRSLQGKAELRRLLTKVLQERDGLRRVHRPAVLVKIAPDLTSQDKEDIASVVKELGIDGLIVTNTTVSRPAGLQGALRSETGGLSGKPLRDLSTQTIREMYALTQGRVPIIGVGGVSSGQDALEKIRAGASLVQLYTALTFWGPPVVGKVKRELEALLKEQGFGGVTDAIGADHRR
T2 sequence (P31039 45-665 partner limits assumed): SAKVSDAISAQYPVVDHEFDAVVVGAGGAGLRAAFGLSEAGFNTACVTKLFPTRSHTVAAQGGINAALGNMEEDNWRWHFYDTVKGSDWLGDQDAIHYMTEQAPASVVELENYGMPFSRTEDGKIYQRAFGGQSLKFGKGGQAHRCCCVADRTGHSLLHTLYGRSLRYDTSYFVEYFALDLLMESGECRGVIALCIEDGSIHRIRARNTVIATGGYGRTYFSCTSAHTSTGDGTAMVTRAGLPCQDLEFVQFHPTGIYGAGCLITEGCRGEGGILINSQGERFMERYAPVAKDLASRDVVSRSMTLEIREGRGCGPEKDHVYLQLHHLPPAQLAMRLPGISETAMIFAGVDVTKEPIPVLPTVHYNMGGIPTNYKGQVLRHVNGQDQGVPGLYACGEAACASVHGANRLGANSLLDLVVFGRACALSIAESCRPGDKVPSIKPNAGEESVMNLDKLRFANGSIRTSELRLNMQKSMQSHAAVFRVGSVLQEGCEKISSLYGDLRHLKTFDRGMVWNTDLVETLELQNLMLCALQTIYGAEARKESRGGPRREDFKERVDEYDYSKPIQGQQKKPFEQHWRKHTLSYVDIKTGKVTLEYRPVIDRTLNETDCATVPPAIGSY
T2 sequence (Q3T189 29-280): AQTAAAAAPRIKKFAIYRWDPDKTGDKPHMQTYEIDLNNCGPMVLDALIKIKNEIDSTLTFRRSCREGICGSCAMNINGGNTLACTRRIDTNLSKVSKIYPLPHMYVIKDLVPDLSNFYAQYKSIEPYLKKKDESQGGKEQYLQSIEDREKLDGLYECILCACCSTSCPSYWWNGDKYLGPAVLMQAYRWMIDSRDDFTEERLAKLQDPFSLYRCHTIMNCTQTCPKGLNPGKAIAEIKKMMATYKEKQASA
T2 sequence (P35720 30-169): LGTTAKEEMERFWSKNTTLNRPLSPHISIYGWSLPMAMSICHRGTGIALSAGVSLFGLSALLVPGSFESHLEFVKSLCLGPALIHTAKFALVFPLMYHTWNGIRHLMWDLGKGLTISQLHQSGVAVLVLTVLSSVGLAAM
T2 sequence (Q95123 56-158): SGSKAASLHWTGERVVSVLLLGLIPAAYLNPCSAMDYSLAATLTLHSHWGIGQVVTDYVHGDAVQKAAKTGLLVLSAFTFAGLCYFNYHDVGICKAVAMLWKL

Structure (SMILES): C/C(=C\Cc1c(O)c(Cl)c(C)c(C=O)c1O)CC/C=C(\C)C(C)O (stereo not drawn) [Compound 6]
- GI50 (OVCAR-8): 25 µM
- GI50 (DMS114): 35 µM
- GI50 (NCI-H522): 22 µM
- GI50 (OVCAR-3): 27 µM
- GI50 (U251): 5.1 µM
- GI50 (MKN28): 36 µM
- GI50 (RXF-631L): 45 µM
- GI50 (HCT-15): 6.2 µM
- GI50 (NCI-H23): 39 µM
- GI50 (MCF-7): 36 µM
- GI50 (HBC-5): 61 µM
- GI50 (SF-295): 16 µM
- GI50 (ACHN): 22 µM
- GI50 (μM) KM-12 (KM-12): 32.0 µM
- GI50 (NCI-H226): 24 µM
- GI50 (SK-OV-3): 27 µM
- GI50 (OVCAR-4): 39 µM
- GI50 (HCT-116): 14 µM
- GI50 (SF-539): 5.3 µM
- GI50 (PC-3): 22 µM
- GI50 (MKN7): 36 µM
- GI50 (BSY-1): 59 µM
- GI50 (LOX-IMVI): 13 µM
- GI50 (HT-29): 39 µM
- GI50 (SF-268): 12 µM
- GI50 (DMS273): 18 µM
- GI50 (SNB-78): 43 µM
- GI50 (A549): 37 µM
- GI50 (MKN74): 26 µM
- GI50 (NCI-H460): 12 µM
- GI50 (St-4): 44 µM
- GI50 (MKN45): 65 µM
- IC50 [1, 2]: 63.9 ± 11 nM
- GI50 (HBC-4): 37 µM
- GI50 (MDA-MB-231): 36 µM
- GI50 (HCC2998): 43 µM
- GI50 (OVCAR-5): 58 µM
- GI50 (MKN1): 44 µM
- GI50 (DU-145): 25 µM
- GI50 (SNB-75): 59 µM

Structure (SMILES): C=C(C)[C@H]1Cc2c(ccc3c2O[C@@H]2COc4cc(OC)c(OC)cc4[C@@H]2C3=O)O1 [Rotenone, reference compound]
- IC50 (Complex II–III): > 10 µM
- IC50 (Complexes I–III): 0.0063 ± 0.0001 µM
- inhibition at 5 µM (Complex II): 6.4 ± 7.9%
- inhibition at 5 µM (Complex III): 1.1 ± 2.8%
- Inhibition (%) Complex I (Complex I): 94 ± 1.5%
- IC50 ([1]; IC50 (μM) HsDHODH, Table 6): > 10000 nM

Structure (SMILES): Cc1c(Cl)c(O)c(CCC(C)CCCCOC(=O)C(C)(C)C)c(O)c1C=O (stereo not drawn) [Compound 16]
- inhibition at 1 µM [1]: 21%
- IC50 [1, 2]: > 1000 nM

Structure (SMILES): C/C(=C\Cc1c(O)c(Cl)c(C)c(C=O)c1O)CC/C=C(\C)C1CC(=O)C(C)(C)O1 (racemic) [Compound 2, racemic-AF]
- IC50 [1, 2]: 97.4 ± 7.3 nM

Structure (SMILES): C/C(O)=C(\C#N)C(=O)Nc1ccc(C(F)(F)F)cc1 [Compound A771726, teriflunomide, reference compound]
- effect on DLD-1 under hypoxia/nutrient-deprived conditions (in words) (DLD-1 cells): specific inhibition under hypoxia/nutrient-deprived condition was observed

Structure (SMILES): COc1[nH]c(=O)c(C(=O)[C@@H](C)C[C@H](C)[C@@H](Cl)CCl)c(O)c1OC [Atpenin A5, reference compound]
- IC50 (Complex II–III): 0.0063 ± 0.0002 µM
- IC50 (Complexes I–III): 2.8 ± 0.44 µM
- inhibition at 5 µM (Complex II): 97 ± 1%
- inhibition at 5 µM (Complex III): 0%
- Inhibition (%) Complex I (Complex I): 10 ± 2.7%
- IC50 ([1]; IC50 (μM) HsDHODH, Table 6): > 10000 nM

Structure (SMILES): CCCCCC(C)CCc1c(O)c(Cl)c(C)c(C=O)c1O (stereo not drawn) [Compound 18]
- inhibition at 1 µM [1]: 37%
- IC50 [1, 2]: > 1000 nM

Structure (SMILES): C/C(=C\CC/C=C/Cc1c(O)c(Cl)c(C)c(C=O)c1O)COC(=O)C(C)(C)C [Compound 13]
- fold decrease (IC50 compared to 4) ([1]; HsDHODH IC50 versus compound 4): about 3.5 fold
- IC50 [1, 2]: 349 ± 96 nM

Structure (SMILES): C/C(=C\COC(=O)C(C)C)CC/C(C)=C/Cc1c(O)c(Cl)c(C)c(C=O)c1O [Compound 12]
- GI50 (OVCAR-8): 9.4 µM
- GI50 (DMS114): 12 µM
- GI50 (NCI-H522): 4.2 µM
- GI50 (OVCAR-3): 7.1 µM
- GI50 (U251): 4.9 µM
- GI50 (MKN28): 13 µM
- GI50 (RXF-631L): 16 µM
- GI50 (HCT-15): 1.9 µM
- GI50 (NCI-H23): 13 µM
- GI50 (MCF-7): 6.7 µM
- GI50 (HBC-5): 18 µM
- GI50 (SF-295): 16 µM
- GI50 (ACHN): 16 µM
- GI50 (μM) KM-12 (KM-12): 10.0 µM
- GI50 (NCI-H226): 8 µM
- GI50 (SK-OV-3): 49 µM
- GI50 (OVCAR-4): 19 µM
- GI50 (HCT-116): 4.6 µM
- GI50 (SF-539): 2.2 µM
- GI50 (PC-3): 13 µM
- GI50 (MKN7): 16 µM
- GI50 (BSY-1): 16 µM
- GI50 (LOX-IMVI): 3.4 µM
- GI50 (HT-29): 5.8 µM
- GI50 (SF-268): 9.5 µM
- GI50 (DMS273): 3.6 µM
- GI50 (SNB-78): 28 µM
- GI50 (A549): 7.1 µM
- GI50 (MKN74): 11 µM
- GI50 (NCI-H460): 4.5 µM
- GI50 (St-4): 17 µM
- GI50 (MKN45): 24 µM
- GI50 (HBC-4): 9.4 µM
- GI50 (MDA-MB-231): 10 µM
- GI50 (HCC2998): 16 µM
- GI50 (OVCAR-5): 22 µM
- GI50 (MKN1): 12 µM
- GI50 (DU-145): 23 µM
- GI50 (SNB-75): 28 µM
